US20220339136A1, “LIPOSOMAL TROPONOID COMPOUND FORMULATIONS” (United States Government As Represented By The Department …, priority 2019, published 2022)

How the values were obtained:
[1] = system: Vancomycin Intermediate Staphylococcus aureus (VISA) strain AR228; settings: cited from earlier work; note: key: R: resistance; S: sensitive; I: intermediate; NS: nonsusceptible
[2] = system: WT S. aureus (ATCC 25923); settings: cited from earlier work
[3] = system: Vancomycin Intermediate Staphylococcus aureus (VISA) strain AR219; settings: cited from earlier work; note: key: R: resistance; S: sensitive; I: intermediate; NS: nonsusceptible
[4] = system: S. aureus; settings: 4×MIC, in vitro; cited from earlier work
[5] = system: S. aureus; settings: cited from earlier work
[6] = Solubility; assay type: physicochemical
[7] = system: Sa #10, mupirocin-resistant MDRSA; test: Killing of drug-resistant bacteria Sa #10; assay type: cell-based, Staphylococcus aureus; settings: troponoids formulated as liposomes
[8] = insoluble as defined herein (less than 10 mg/l); cited from earlier work
[9] = system: multidrug-resistant Staphylococcus. aureus (MDRSA), including methicillin-resistant S. aureus (MRSA) strains; settings: cited from earlier work
[10] = system: mammal cell lines; settings: cited from earlier work

Compound | Antimicrobial susceptibility testing pattern (AST) [1] | Antimicrobial susceptibility testing pattern (AST) [2] | Antimicrobial susceptibility testing pattern (AST) [3] | further results
CC(=O)NC[C@H]1CN(c2ccc(N3CCOCC3)c(F)c2)C(=O)O1 [LZD, Linezolid] | S | S | S | 
CN[C@H](CC(C)C)C(=O)N[C@H]1C(=O)N[C@@H](CC(N)=O)C(=O)N[C@H]2C(=O)N[C@H]3C(=O)N[C@H](C(=O)N[C@H](C(=O)O)c4cc(O)cc(O)c4-c4cc3ccc4O)[C@H](O)c3ccc(c(Cl)c3)Oc3cc2cc(c3O[C@@H]2O[C@H](CO)[C@@H](O)[C@H](O)[C@H]2O[C@H]2C[C@](C)(N)[C@H](O)[C@H](C)O2)Oc2ccc(cc2Cl)[C@H]1O [VAN, Vancomycin] | I | S | I | 
Trimethoprim-sulfamethoxazole [SXT] | S | S | S | 
Gentamicin | S | S | R | 
CC[C@H]1OC(=O)[C@H](C)[C@@H](O[C@H]2C[C@@](C)(OC)[C@@H](O)[C@H](C)O2)[C@H](C)[C@@H](O[C@@H]2O[C@H](C)C[C@H](N(C)C)[C@H]2O)[C@](C)(O)C[C@@H](C)C(=O)[C@H](C)[C@@H](O)[C@]1(C)O [ERY, Erthromycin] | R | S | R | 
CO[C@H]1/C=C/O[C@@]2(C)Oc3c(C)c(O)c4c(O)c(c(/C=N/N5CCN(C)CC5)c(O)c4c3C2=O)NC(=O)/C(C)=C\C=C\[C@H](C)[C@H](O)[C@@H](C)[C@@H](O)[C@@H](C)[C@H](OC(C)=O)[C@@H]1C [RIF, Rifampin] | S | S | R | 
Penicillin | R |  | R | 
CO[C@@]1(NC(=O)Cc2cccs2)C(=O)N2C(C(=O)O)=C(COC(N)=O)CS[C@@H]21 [FOX, Cefoxitin] | R | Neg | R | 
C/C(=C\C(=O)OCCCCCCCCC(=O)O)C[C@@H]1OC[C@H](C[C@@H]2O[C@H]2[C@@H](C)[C@H](C)O)[C@@H](O)[C@H]1O [MUP, Mupirocin] | R |  |  | 
Daptomyxin |  | S |  | 
COc1ccccc1C(=O)Oc1cccccc1=O [compound 285] |  |  |  | incubation time to completely kill S. aureus [4]: 5 to 8 h; MIC [5]: less than 5 μg/mL; solubility in DMSO ([6]; DMSO, Gentamicin at 10 mg/mL): can be dissolved; solubility in water ([6]; water): not quite soluble; killing of mupirocin-resistant MDRSA Sa #10 [7]: can kill; solubility in water (reportedly) [8]: insoluble; inhibition of MDRSA including MRSA strains [9]: can inhibit; CC50 [10]: > 100 µM
Cc1onc(-c2ccccc2)c1C(=O)N[C@@H]1C(=O)N2[C@@H]1SC(C)(C)[C@@H]2C(=O)O [OXA, Oxacillin] | R | S | R | 
